# Results from patent US6825199B2, “7-Substituted quinazolin-2,4-diones useful as antibacterial agents” (Warner-Lambert Company, priority 1997, dated 2004).
# pIC50: −log10 of the molar value. Where two headings read alike, the source gives them in different places.
# Tests used:
# [1] = system: B. subtilis RB1; experiment: Antibacterial assay, standard microtitration (MIC); type: cell-based; conditions: Bacillus subtilis, Gram positive, read-out: Minimum Inhibitory Concentrations B. subtilis RB1
# Method: (§1) Antibacterial assay: The compounds of the present invention were tested against an assortment of Gram negative and Gram positive organisms using standard microtitration techniques (Cohen, et al., Antimicrob. Agents Chemother., 1985;28:766; Heifetz, et al., Antimicrob. Agents Chemother., 1974;6:124).
# [2] = system: E. coli B90; experiment: Antibacterial assay, standard microtitration (MIC); type: cell-based; conditions: Gram negative; for MIC: Escherichia coli, B90, read-out: Minimum Inhibitory Concentrations E. coli B90
# Method: as §1
# [3] = system: E. coli MC4100; experiment: Antibacterial assay, standard microtitration (MIC); type: cell-based; conditions: Gram negative; for MIC: Escherichia coli, MC4100, read-out: Minimum Inhibitory Concentrations E. coli MC4100
# Method: as §1
# [4] = system: E. coli Tol C; experiment: Antibacterial assay, standard microtitration (MIC); type: cell-based; conditions: for MIC: Escherichia coli, read-out: Minimum Inhibitory Concentrations E. coli Tol C; for Minimum Inhibitory Concentrations E. coli Tol C: Gram negative
# Method: as §1
# [5] = system: S. aureus 29213; experiment: Antibacterial assay, standard microtitration (MIC); type: cell-based; conditions: Gram positive; for MIC: Staphylococcus aureus, 29213, read-out: Minimum Inhibitory Concentrations S. aureus 29213
# Method: as §1
# [6] = system: S. pyogenes C203; experiment: Antibacterial assay, standard microtitration (MIC); type: cell-based; conditions: Gram positive; for MIC: Streptococcus pyogenes, C203, read-out: Minimum Inhibitory Concentrations S. pyogenes C203
# Method: as §1
# [7] = molecular target: T1, E. coli gyrase (Escherichia coli, UniProt P0AES4+P0AES6); experiment: DNA gyrase supercoiling inhibition assay; type: biochemical
# T1 construct: purchased Lucent, Ltd., Leicester, UK
# T1 sequence (P0AES4 whole entry, one chain of several): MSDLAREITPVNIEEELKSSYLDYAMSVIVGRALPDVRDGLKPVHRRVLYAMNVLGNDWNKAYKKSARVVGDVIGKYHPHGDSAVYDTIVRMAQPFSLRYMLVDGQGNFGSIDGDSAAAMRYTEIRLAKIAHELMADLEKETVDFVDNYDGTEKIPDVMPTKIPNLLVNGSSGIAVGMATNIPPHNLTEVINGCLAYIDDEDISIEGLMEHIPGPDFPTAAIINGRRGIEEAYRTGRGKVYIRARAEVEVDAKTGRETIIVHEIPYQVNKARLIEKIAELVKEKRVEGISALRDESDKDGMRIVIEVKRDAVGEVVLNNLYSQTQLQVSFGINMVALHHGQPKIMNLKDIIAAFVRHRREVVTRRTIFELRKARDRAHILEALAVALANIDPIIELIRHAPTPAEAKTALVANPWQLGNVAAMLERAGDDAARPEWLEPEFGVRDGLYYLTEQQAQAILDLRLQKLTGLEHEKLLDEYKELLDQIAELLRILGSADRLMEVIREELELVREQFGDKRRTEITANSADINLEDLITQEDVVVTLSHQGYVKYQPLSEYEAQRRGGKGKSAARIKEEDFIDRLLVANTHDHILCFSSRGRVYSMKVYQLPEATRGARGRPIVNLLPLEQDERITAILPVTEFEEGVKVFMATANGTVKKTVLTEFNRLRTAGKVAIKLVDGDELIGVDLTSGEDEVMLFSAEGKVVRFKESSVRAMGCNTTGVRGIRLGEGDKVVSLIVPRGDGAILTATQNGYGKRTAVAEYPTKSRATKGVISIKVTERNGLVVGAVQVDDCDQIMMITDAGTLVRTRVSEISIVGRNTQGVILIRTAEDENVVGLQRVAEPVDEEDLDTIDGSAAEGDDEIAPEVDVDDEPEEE
# Method: DNA gyrase assay: The effects of test agents on the activity of DNA gyrase was determined by the supercoiling inhibition assay, following reaction conditions recommended by the enzyme supplier (Lucent, Ltd., Leicester, UK), as follows. Reactions were performed in buffer G (35 mM Tris-HCl (pH 7.5), 24 mM KCl, 4 mM MgCl2, 2 mM DTT, 1.8 mM spermidine, 1 mM ATP, 0.1 mg/mL bovine serum albumin). 0.25 μg of relaxed plasmid pBR322 (Lucent, Ltd., Leicester, UK) was reacted with 1 U E. coli gyrase (Lucent, Ltd., Leicester, UK), in the absence or presence of drugs, for 30 minutes at 37° C. Reactions were stopped by the addition of SDS and proteinase K to respective final concentrations of 1% and 0.5 mg/mL. After an additional 30 minutes at 37° C., one-tenth volume of 10×loading buffer (0.3% bromophenol blue, 16% Ficoll, 10 mM Na2HPO4) was added, and reactions were loaded onto agarose gels and electrophoresed as described above for intercalation assays. The concentration of drug inhibiting 50% of the supercoiling activity of DNA gyrase is given as an IC50 and recorded in Table 2.
# [8] = molecular target: T2, E. coli Topoisomerase IV (Escherichia coli, UniProt P0AFI2+P20083); experiment: Topoisomerase IV k-DNA decatenation assay; type: biochemical
# T2 construct: made in house; host or cells: E. coli overexpressing strains
# T2 sequence (P20083 whole entry): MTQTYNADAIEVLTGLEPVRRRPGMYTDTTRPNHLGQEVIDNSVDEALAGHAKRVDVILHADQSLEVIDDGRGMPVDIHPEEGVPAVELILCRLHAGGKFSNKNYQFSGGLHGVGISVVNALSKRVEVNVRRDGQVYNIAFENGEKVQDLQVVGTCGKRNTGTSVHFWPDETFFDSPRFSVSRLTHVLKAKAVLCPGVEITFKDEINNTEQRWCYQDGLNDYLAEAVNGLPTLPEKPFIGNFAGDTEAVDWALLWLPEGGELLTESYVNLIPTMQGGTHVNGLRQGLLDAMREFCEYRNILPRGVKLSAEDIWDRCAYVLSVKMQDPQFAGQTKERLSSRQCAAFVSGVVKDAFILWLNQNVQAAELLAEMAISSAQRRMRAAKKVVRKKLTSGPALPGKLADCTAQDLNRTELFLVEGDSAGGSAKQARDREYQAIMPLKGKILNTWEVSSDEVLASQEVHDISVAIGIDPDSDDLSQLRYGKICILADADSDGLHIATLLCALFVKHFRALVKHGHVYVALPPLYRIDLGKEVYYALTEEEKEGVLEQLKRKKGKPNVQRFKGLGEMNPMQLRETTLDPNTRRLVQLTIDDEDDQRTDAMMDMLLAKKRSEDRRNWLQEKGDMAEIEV
# T2 sequence (P0AFI2 whole entry): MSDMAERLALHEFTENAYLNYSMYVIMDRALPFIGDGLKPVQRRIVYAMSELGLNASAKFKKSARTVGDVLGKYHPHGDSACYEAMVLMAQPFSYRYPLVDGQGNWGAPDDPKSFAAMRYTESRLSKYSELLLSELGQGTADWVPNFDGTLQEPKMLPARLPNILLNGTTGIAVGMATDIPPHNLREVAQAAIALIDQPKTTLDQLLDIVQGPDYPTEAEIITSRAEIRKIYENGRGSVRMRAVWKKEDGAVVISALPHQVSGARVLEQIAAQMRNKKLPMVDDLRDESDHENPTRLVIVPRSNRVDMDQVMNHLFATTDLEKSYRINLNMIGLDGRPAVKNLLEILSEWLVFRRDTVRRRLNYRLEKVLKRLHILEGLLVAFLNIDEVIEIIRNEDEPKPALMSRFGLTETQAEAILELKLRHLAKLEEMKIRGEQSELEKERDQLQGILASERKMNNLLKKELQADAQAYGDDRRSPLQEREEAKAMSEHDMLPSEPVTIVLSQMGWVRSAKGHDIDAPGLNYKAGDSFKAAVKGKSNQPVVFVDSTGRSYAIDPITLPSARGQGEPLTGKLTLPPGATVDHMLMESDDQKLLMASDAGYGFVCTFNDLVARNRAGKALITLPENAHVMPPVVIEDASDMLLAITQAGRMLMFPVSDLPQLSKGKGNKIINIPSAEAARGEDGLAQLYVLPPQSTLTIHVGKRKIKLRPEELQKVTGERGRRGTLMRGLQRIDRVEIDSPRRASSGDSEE
# Method: Topoisomerase IV assay: Topoisomerase IV was purified from E. coli overexpressing strains, and the compounds were assayed according to literature conditions (Journal of Biological Chemistry, 1993;268(32):24481). The k-DNA decatenation assay was used. Briefly, reactions were performed in buffer R (40 mM Tris-HCl (pH 7.5),6 mM MgCl2, 10 mM DTT, 100 mM potassium glutamate, 40 μM ATP, 50 μg/mL bovine serum albumin, 10 mM NaCl). Two-tenths microgram of kinetoplast DNA (k-DNA; TopoGen, Columbus, Ohio) was incubated with 5 ng of E. coli Topoisomerase IV in the presence or absence of test compounds for 10 minutes at 37° C. Subsequently, one-tenth volume of 10×gel loading buffer (0.3% bromophenol blue, 16% Ficoll, 10 mM Na2HPO4) was added, and samples were loaded onto horizontal 0.8% agarose gels prepared with TBE buffer and containing 0.05 μg/mL of ethidium bromide. Electrophoresis was at 70 V for 2 to 4 hours. Gels were then examined by exposure to UV light. The concentration of drug inhibiting 50% of the decantenating activity of Topoisomerase IV is given as an IC50 and recorded in Table 2.
# [9] = supercoiling of relaxed pBR322, 30 minutes at 37° C., read-out: Gyrase IC50
# [10] = k-DNA decatenation, 10 minutes at 37° C., read-out: DNA TopIV IC50
SMILES,MIC [1] [µg/mL],MIC [2] [µg/mL],MIC [3] [µg/mL],MIC [4] [µg/mL],MIC [5] [µg/mL],MIC [6] [µg/mL],pIC50 [7],pIC50 [8],"pIC50 [7, 9]","pIC50 [8, 10]",Minimum Inhibitory Concentrations E. coli B90 [2] [µg/mL],Minimum Inhibitory Concentrations E. coli MC4100 [3] [µg/mL],Minimum Inhibitory Concentrations E. coli Tol C [4] [µg/mL],Minimum Inhibitory Concentrations S. aureus 29213 [5] [µg/mL],Minimum Inhibitory Concentrations S. pyogenes C203 [6] [µg/mL]
"CCn1c(=O)n(O)c(=O)c2cc(F)c(N3CCCC3)cc21 [Example 1, 1-Ethyl-6-fluoro-3-hydroxy-7-pyrrolidin-1-yl-1H-quinazoline-2,4-dione]",4,2,> 64,1,32,32,–,–,–,–,–,–,–,–,–
"CCn1c(=O)n(O)c(=O)c2cc(F)c(N3CCN(C)CC3)cc21 [Example 2, 1-Ethyl-6-fluoro-3-hydroxy-7-(4-methyl-piperazin-1-yl)-1H-quinazoline-2,4-dione]",16,4,16,2,> 64,> 64,4.66,< 4.00,–,–,–,–,–,–,–
"CCn1c(=O)n(O)c(=O)c2cc(F)c(N3CCCCC3)cc21 [Example 4, 1-Ethyl-6-fluoro-3-hydroxy-7-piperidin-1-yl-1H-quinazoline-2,4-dione]",8,16,> 64,16,64,64,–,–,–,–,–,–,–,–,–
"CCn1c(=O)n(O)c(=O)c2cc(F)c(N3CCC(CN)C3)cc21.Cl (stereo not drawn) [Example 6, 7-(3-Aminomethyl-pyrrolidin-1-yl)-1-ethyl-6-fluoro-3-hydroxy-1H-quinazoline-2,4-dione, hydrochloride]",32,8,64,8,64,16,5.26,4.23,–,–,–,–,–,–,–
"CCn1c(=O)n(O)c(=O)c2cc(F)c(N3CCNCC3)cc21 [Example 7, 1-Ethyl-6-fluoro-3-hydroxy-7-piperazin-1-yl-1H-quinazoline-2,4-dione]",> 64,4,16,8,> 64,> 64,< 4.00,4.31,–,–,–,–,–,–,–
"CCn1c(=O)n(O)c(=O)c2cc(F)c(N3CCC(C)(CN)C3)cc21.Cl (stereo not drawn) [Example 9, 7-(3-Aminomethyl-3-methyl-pyrrolidin-1-yl)-1-ethyl-6-fluoro-3-hydroxy-1H-quinazoline-2,4-dione, hydrochloride]",16,4,16,2,16,8,4.81,< 4.00,–,–,–,–,–,–,–
"O=c1c2cc(F)c(N3CCCC3)cc2n(-c2ccc(O)cc2)c(=O)n1O [Example 14, 1-(4-Hydroxyphenyl)-6-fluoro-3-hydroxy-7-pyrrolidin-yl-1-1H-quinazoline-2,4-dione]",–,4,64,1,32,64,–,–,4.34,–,–,–,–,–,–
"Cl.NC1CCN(c2cc3c(cc2F)c(=O)n(O)c(=O)n3-c2ccc(F)cc2)C1 (stereo not drawn) [Example 17, 1-(4-Fluorophenyl)-6-fluoro-3-hydroxy-7-(3-aminopyrrolidin-1-yl)-1H-quinazoline-2,4-dione, hydrochloride]",–,64,> 64,32,> 64,32,–,–,–,–,–,–,–,–,–
"COc1cccc(-n2c(=O)n(O)c(=O)c3cc(F)c(N4CCCC4)cc32)c1 [Example 23, 1-(3-Methoxyphenyl)-6-fluoro-3-hydroxy-7-pyrrolidin-1-yl-1H-quinazoline-2,4-dione]",–,32,> 64,32,32,32,–,–,4.44,< 4.00,–,–,–,–,–
"O=c1c2cc(F)c(N3CCCC3)cc2n(-c2cccc(F)c2)c(=O)n1O [Example 28, 1-(3-Fluorophenyl)-6-fluoro-3-hydroxy-7-pyrrolidin-1-yl-1H-quinazoline-2,4-dione]",–,2,> 64,2,32,32,–,–,–,–,–,–,–,–,–
"O=c1c2cc(F)c(N3CCCC3)nc2n(C2CC2)c(=O)n1O [Example 32, 1-Cyclopropyl-6-fluoro-3-hydroxy-7-pyrrolidin-1-yl-1H-pyrido[2,3-d]pyrimidine-2,4-dione]",–,0.5,> 64,0.5,8,64,–,–,5.19,< 4.00,–,–,–,–,–
"CCn1c(=O)n(O)c(=O)c2cc(F)c(N3CCC(N)C3)nc21.O=C(O)C(F)(F)F (stereo not drawn) [Example 36, 7-(3-Aminopyrrolidin-1-yl)-1-ethyl-6-fluoro-3-hydroxy-1H-pyrido[2,3-d]pyrimidine-2,4-dione, trifluoroacetate]",–,2,8,2,64,32,–,–,–,–,–,–,–,–,–
"O=c1c2cc(F)c(N3CCCC3)cc2n(C2CC2)c(=O)n1O [Example 38, 1-Cyclopropyl-6-fluoro-3-hydroxy-7-(pyrrolidin-1-yl)-1H-quinazoline-2,4-dione]",0.25,0.1,8,0.1,1,16,–,–,5.18,4.24,–,–,–,–,–
"NC1CCN(c2cc3c(cc2F)c(=O)n(O)c(=O)n3C2CC2)C1 (stereo not drawn) [Example 39, 7-(3-Amino-pyrrolidin-1-yl)-1-cyclopropyl-6-fluoro-3-hydroxy-1H-quinazoline-2,4-dione]",2,0.3,1,0.25,32,4,–,–,5.62,5.05,–,–,–,–,–
"N[C@@H]1[C@H]2CN(c3cc4c(cc3F)c(=O)n(O)c(=O)n4C3CC3)C[C@@H]12.O=C(O)C(F)(F)F [Example 42, (1α, 5α, 6α)7-(6-Amino-3-aza-bicyclo[3.1.0]hex-3-yl)-1-cyclopropyl-6-fluoro-3-hydroxy-1H-quinazoline-2,4-dione, trifluoroacetate]",–,–,–,–,–,–,–,–,6.12,4.55,0.25,1.0,0.25,4.0,2.0
"O=c1c2cc(F)c(N3CCCC3)c3c2n(c(=O)n1O)CCS3 [Example 44, 8-Fluoro-5-hydroxy-9-pyrrolidin-1-yl-2,3-dihydro-1-thia-3α,5-diaza-phenalene-4,6-dione]",–,1,> 64,1,4,32,–,–,4.92,< 4.00,–,–,–,–,–
"NC1C2CN(c3c(F)cc4c(=O)n(O)c(=O)n5c4c3SCC5)CC12.O=C(O)C(F)(F)F (stereo not drawn) [Example 46, (1α,5α,6α)9-(6-Amino-3-aza-bicyclo[3.1.0]hex-3-yl)-8-fluoro-5-hydroxy-2,3-dihydro-1-thia-3α,5-diaza-phenalene-4,6-dione, trifluoroacetate]",–,–,–,–,–,–,–,–,5.08,–,2.0,8.0,1.0,>64,32
"O=c1c2cc(F)c(N3CCCC3)nc2n(-c2ccc(F)cc2)c(=O)n1O [Example 56, 6-Fluoro-1-(4-fluorophenyl)-3-hydroxy-7-pyrrolidin-1-yl-1H-pyrido[2,3-d]pyrimidine-2,4-dione]",–,0.13,16,0.13,8,8,–,–,–,–,–,–,–,–,–
